Measured values published in patent publication US10975084B2, “KDM5 inhibitors” (Merck Sharp & Dohme Corp., priority 2016, dated 2021).

Each compound was assayed against KDM5B (Homo sapiens (Human), UniProt Q9UGL1) (assay: KDM5B TR-FRET Enzyme Activity Assay). Conditions: LANCE TR-FRET; 5 nM full-length recombinant KDM5B; ten point titration 100000 nM to 5.08 nM.
Assay type: biochemical
Experimental: KDM5B TR-FRET Enzyme Activity Assay
KDM5B enzymatic activity was determined with the LANCE (Lanthanide Chelate Excite) TR-FRET (Time-resolved fluorescence resonance energy transfer) assay. […] To each well of a white Greiner 1536 Lumitrac 1536 well-plate, 50 nL of compound (100 fold dilution in final assay volume of 5 μL) was dispensed, followed by the addition of 4 μL of 1× assay buffer (50 mM Hepes 7.3, 0.5 mM TCEP, 0.005% Brij-35, 0.02% BSA, 50 μM Na-L-Ascorbate and 2 μM AmFe(II)Sulfate) containing 5 nM of Full-length KDM5B enzyme (recombinant protein from baculovirus-transfected Sf21 cells: full-length KDM5B; MW=176.825 kDa). Following a 30 minutes compound and enzyme incubation in a humidified chamber, each reaction was initiated by the addition of 1 μL 1× assay buffer containing […] biotinylated H3K4Me3 peptide, and 500 nM α-ketoglutarate. The final reaction in each well of 5 μL consists of 5 nM KDM5B, 500 nM biotinylated-peptide, and 500 nM α-ketoglutarate. De-methylation reactions were allowed to proceed for 60 minutes. Reactions were immediately quenched by the addition of 5 uL of 2× Lance Detection Buffer (PerkinElmer) with 0.5 mM EDTA and 2 nM of Eu-anti-H3K4Me1-2 antibody, and 30 nM of Streptavidin-conjugated Dylight 650 detection reagents. After 60 minutes incubation with detection reagents, reaction plates were read on a PerkinElmer EnVision plate reader using standard TR-FRET protocol. Briefly, excitation of donor molecules (Eu-chelate-anti-H3K4Me1-2-antibody) with a laser light source at 337 nm produces energy that can be transferred to Dylight-650 acceptor molecules if this donor:acceptor pair is within close proximity. Fluorescence intensity at both 665 nm (acceptor) and 615 nm (donor) are measured and a TR-FRET ratio calculated for each well (acceptor intensity/donor intensity). IC50 values were determined by 4 parameter robust fit of TR-FRET ratio values vs. (Log 10) compound concentrations.

KDM5B, sequence (Q9UGL1 whole entry): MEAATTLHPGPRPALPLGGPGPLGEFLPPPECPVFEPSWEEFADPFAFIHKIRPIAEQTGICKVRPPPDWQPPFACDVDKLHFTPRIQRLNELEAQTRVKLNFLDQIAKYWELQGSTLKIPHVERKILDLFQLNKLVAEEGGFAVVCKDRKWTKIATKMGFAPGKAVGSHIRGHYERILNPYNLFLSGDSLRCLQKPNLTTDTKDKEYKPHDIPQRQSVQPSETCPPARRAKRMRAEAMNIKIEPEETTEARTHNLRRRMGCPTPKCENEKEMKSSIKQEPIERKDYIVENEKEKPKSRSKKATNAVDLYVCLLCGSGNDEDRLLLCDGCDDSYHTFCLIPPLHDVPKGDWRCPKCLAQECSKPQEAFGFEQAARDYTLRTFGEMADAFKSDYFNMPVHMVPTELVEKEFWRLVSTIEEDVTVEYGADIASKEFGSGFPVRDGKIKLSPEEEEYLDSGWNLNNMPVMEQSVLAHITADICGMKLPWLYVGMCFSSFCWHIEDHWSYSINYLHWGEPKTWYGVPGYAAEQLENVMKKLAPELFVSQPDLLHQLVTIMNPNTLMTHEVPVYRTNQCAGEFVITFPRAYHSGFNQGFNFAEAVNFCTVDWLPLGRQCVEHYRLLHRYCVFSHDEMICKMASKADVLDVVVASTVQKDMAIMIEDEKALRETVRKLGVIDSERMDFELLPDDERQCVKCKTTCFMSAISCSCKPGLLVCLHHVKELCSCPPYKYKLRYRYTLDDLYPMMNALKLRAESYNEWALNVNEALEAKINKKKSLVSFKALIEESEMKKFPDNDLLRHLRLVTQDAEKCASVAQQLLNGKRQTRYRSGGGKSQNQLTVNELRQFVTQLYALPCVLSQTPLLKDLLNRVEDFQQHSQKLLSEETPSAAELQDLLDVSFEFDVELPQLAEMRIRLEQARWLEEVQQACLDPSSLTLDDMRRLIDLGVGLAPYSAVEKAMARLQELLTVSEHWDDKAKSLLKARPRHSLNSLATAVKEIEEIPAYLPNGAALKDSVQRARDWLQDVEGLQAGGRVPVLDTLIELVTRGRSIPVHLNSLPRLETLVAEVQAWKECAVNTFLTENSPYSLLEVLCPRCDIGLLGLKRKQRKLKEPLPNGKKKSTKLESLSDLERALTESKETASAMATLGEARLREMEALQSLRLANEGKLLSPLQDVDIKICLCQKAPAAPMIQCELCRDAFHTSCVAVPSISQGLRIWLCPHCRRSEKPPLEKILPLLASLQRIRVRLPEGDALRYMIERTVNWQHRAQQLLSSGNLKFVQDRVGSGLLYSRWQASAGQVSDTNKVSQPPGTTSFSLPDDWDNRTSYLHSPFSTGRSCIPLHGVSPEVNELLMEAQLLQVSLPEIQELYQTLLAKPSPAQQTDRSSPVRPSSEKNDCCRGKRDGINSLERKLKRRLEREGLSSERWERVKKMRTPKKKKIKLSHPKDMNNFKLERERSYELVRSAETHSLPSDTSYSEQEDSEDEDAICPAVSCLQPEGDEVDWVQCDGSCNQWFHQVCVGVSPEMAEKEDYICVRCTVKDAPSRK

IC50 [nM] | Structure (SMILES)
10100 | O=c1cc(-c2ccccc2Cl)[nH]c2ncnn12 [Example 8-27, 5-(2-chlorophenyl)[1,2,4]triazolo[1,5-a]pyrimidin-7(4H)-one]
5540 | O=c1cc(-c2ccccc2F)[nH]c2ncnn12 [Example 8-28, 5-(2-fluorophenyl)[1,2,4]triazolo[1,5-a]pyrimidin-7(4H)-one]
2980 | O=c1cc(-c2cccc(Cl)c2)[nH]c2ncnn12 [Example 8-29, 5-(3-chlorophenyl)[1,2,4]triazolo[1,5-a]pyrimidin-7(4H)-one]
2450 | O=c1cc(-c2cccc(F)c2)[nH]c2ncnn12 [Example 8-30, 5-(3-fluorophenyl)[1,2,4]triazolo[1,5-a]pyrimidin-7(4H)-one]
3330 | Cn1cc(-c2cc(=O)n3ncnc3[nH]2)cn1 [Example 8-31, 5-(1-methyl-1H-pyrazol-4-yl)[1,2,4]triazolo[1,5-a]pyrimidin-7(4H)-one]
37600 | CCCc1[nH]c2ncnn2c(=O)c1-c1ccccc1 [Example 8-32, 6-phenyl-5-propyl[1,2,4]triazolo[1,5-a]pyrimidin-7(4H)-one]
82300 | CC(C)c1cc(=O)n2ncnc2[nH]1 [Example 8-33, 5-(1-methylethyl)[1,2,4]triazolo[1,5-a]pyrimidin-7(4H)-one]
519 | CCc1c(-c2ccccc2)[nH]c2ncnn2c1=O [Example 8-34, 6-ethyl-5-phenyl[1,2,4]triazolo[1,5-a]pyrimidin-7(4H)-one]
271 | CC(C)c1c(-c2ccccc2)[nH]c2ncnn2c1=O [Example 8-35, 6-(1-methylethyl)-5-phenyl[1,2,4]triazolo[1,5-a]pyrimidin-7(4H)-one]
3490 | CCc1c(C)[nH]c2ncnn2c1=O [Example 8-36, 6-ethyl-5-methyl-[1,2,4]triazolo[1,5-a]pyrimidin-7(4H)-one]
91700 | CCc1c(C)[nH]c2nncn2c1=O [Example 8-37, 6-ethyl-7-methyl[1,2,4]triazolo[4,3-a]pyrimidin-5(8H)-one]
16.2 | CC(C)c1c(-c2cnn(C)c2)[nH]c2ncnn2c1=O [Example 8-38, 6-(1-methylethyl)-5-(1-methyl-1H-pyrazol-4-yl)[1,2,4]triazolo[1,5-a]pyrimidin-7(4H)-one]
87.1 | CC(C)(C)n1cc(-c2[nH]c3ncnn3c(=O)c2CC(F)(F)F)cn1 [Example 8-39, 5-(1-tert-butyl-1H-pyrazol-4-yl)-6-(2,2,2-trifluoroethyl)[1,2,4]triazolo[1,5-a]pyrimidin-7(4H)-one]
1030 | O=c1c(C2CCC2)c(-c2ccc(F)cc2)[nH]c2ncnn12 [Example 8-40, 6-cyclobutyl-5-(4-fluorophenyl)[1,2,4]triazolo[1,5-a]pyrimidin-7(4H)-one]
32.9 | CC(C)n1cc(-c2[nH]c3ncnn3c(=O)c2C2CCC2)cn1 [Example 8-41, 6-cyclobutyl-5-[1-(1-methylethyl)-1H-pyrazol-4-yl][1,2,4]triazolo[1,5-a]pyrimidin-7(4H)-one]
904 | CC(C)(C)c1c(-c2cnn(C(C)(C)C)c2)[nH]c2ncnn2c1=O [Example 11-4, 6-tert-butyl-5-(1-tert-butyl-1H-pyrazol-4-yl)[1,2,4]triazolo[1,5-a]pyrimidin-7(4H)-one]
5400 | CC(C)(C)c1c(-c2ccc(F)cc2)[nH]c2ncnn2c1=O [Example 11-5, 6-tert-butyl-5-(4-fluorophenyl)[1,2,4]triazolo[1,5-a]pyrimidin-7(4H)-one]
1270 | Cn1cc(-c2[nH]c3ncnn3c(=O)c2C(C)(C)C)cn1 [Example 11-6, 6-tert-butyl-5-(1-methyl-1H-pyrazol-4-yl)[1,2,4]triazolo[1,5-a]pyrimidin-7(4H)-one]
772 | CC(C)(C)c1c(-c2cnn(-c3ccccc3)c2)[nH]c2ncnn2c1=O [Example 11-7, 6-tert-butyl-5-(1-phenyl-1H-pyrazol-4-yl)[1,2,4]triazolo[1,5-a]pyrimidin-7(4H)-one]
6.28 | CC(C)c1c(-c2cnn(-c3ccccc3)c2)[nH]c2ncnn2c1=O [Example 11-8, 6-(1-methylethyl)-5-(1-phenyl-1H-pyrazol-4-yl)[1,2,4]triazolo[1,5-a]pyrimidin-7(4H)-one]

IC50 [nM] | Structure (SMILES)
7.3 | CC(C)c1c(-c2cnn(Cc3ccccc3)c2)[nH]c2ncnn2c1=O [Example 11-9, 5-(1-benzyl-1H-pyrazol-4-yl)-6-(1-methylethyl)[1,2,4]triazolo[1,5-a]pyrimidin-7(4H)-one]
7.52 | CC(C)c1c(-c2ccc(N3CCOCC3)cc2)[nH]c2ncnn2c1=O [Example 11-10, 6-(1-methylethyl)-5-(4-morpholin-4-ylphenyl)[1,2,4]triazolo[1,5-a]pyrimidin-7(4H)-one]
160 | CC(C)c1c(-c2ccc(F)cc2)[nH]c2ncnn2c1=O [Example 11-11, 5-(4-fluorophenyl)-6-(1-methylethyl)[1,2,4]triazolo[1,5-a]pyrimidin-7(4H)-one]
5.08 | CC(C)Cn1cc(-c2[nH]c3ncnn3c(=O)c2C(C)C)cn1 [Example 11-12, 6-(1-methylethyl)-5-[1-(2-methylpropyl)-1H-pyrazol-4-yl][1,2,4]triazolo[1,5-a]pyrimidin-7(4H)-one]
5.08 | CC(C)c1c(-c2cnn(CC3(F)CCCC3)c2)[nH]c2ncnn2c1=O [Example 11-13, 5-{1-[(1-fluorocyclopentyl)methyl]-1H-pyrazol-4-yl}-6-(1-methylethyl)[1,2,4]triazolo[1,5-a]pyrimidin-7(4H)-one]
5.08 | CC(C)c1c(-c2cnn(CC3CC3)c2)[nH]c2ncnn2c1=O [Example 11-14, 5-[1-(cyclopropylmethyl)-1H-pyrazol-4-yl]-6-(1-methylethyl)[1,2,4]triazolo[1,5-a]pyrimidin-7(4H)-one]
7.5 | CC(C)c1c(-c2cnn(Cc3ccncc3)c2)[nH]c2ncnn2c1=O [Example 11-15, 6-(1-methylethyl)-5-[1-(pyridin-4-ylmethyl)-1H-pyrazol-4-yl][1,2,4]triazolo[1,5-a]pyrimidin-7(4H)-one]
5.73 | COCCn1cc(-c2[nH]c3ncnn3c(=O)c2C(C)C)cn1 [Example 11-16, 5-[1-(2-methoxyethyl)-1H-pyrazol-4-yl]-6-(1-methylethyl)[1,2,4]triazolo[1,5-a]pyrimidin-7(4H)-one]
6.47 | CC(C)c1c(-c2cnn(-c3ccc(F)cc3)c2)[nH]c2ncnn2c1=O [Example 11-17, 5-[1-(4-fluorophenyl)-1H-pyrazol-4-yl]-6-(1-methylethyl)[1,2,4]triazolo[1,5-a]pyrimidin-7(4H)-one]
5.74 | CC(C)c1c(-c2cnn(C3CC3)c2)[nH]c2ncnn2c1=O [Example 11-18, 5-(1-cyclopropyl-1H-pyrazol-4-yl)-6-(1-methylethyl)[1,2,4]triazolo[1,5-a]pyrimidin-7(4H)-one]
6.27 | CCn1cc(-c2[nH]c3ncnn3c(=O)c2C(C)C)cn1 [Example 11-19, 5-(1-ethyl-1H-pyrazol-4-yl)-6-(1-methylethyl)[1,2,4]triazolo[1,5-a]pyrimidin-7(4H)-one]
5.08 | CC(C)c1c(-c2cnn(C(C)C)c2)[nH]c2ncnn2c1=O [Example 11-20, 6-(1-methylethyl)-5-[1-(1-methylethyl)-1H-pyrazol-4-yl][1,2,4]triazolo[1,5-a]pyrimidin-7(4H)-one]
5.08 | CCCn1cc(-c2[nH]c3ncnn3c(=O)c2C(C)C)cn1 [Example 11-21, 6-(1-methylethyl)-5-(1-propyl-1H-pyrazol-4-yl)[1,2,4]triazolo[1,5-a]pyrimidin-7(4H)-one]
808 | C=C(CCC)c1[nH]c2ncnn2c(=O)c1C(C)C [Example 11-22, 6-(1-methylethyl)-5-(1-methylidene-butyl)[1,2,4]triazolo[1,5-a]pyrimidin-7(4H)-one]
27.7 | COC/C=C/c1[nH]c2ncnn2c(=O)c1C(C)C [Example 11-23, 5-[(1E)-3-methoxyprop-1-en-1-yl]-6-(1-methylethyl)[1,2,4]triazolo[1,5-a]pyrimidin-7(4H)-one]
41.2 | CC(C)c1c(-c2ccncc2)[nH]c2ncnn2c1=O [Example 11-24, 6-(1-methylethyl)-5-pyridin-4-yl[1,2,4]triazolo[1,5-a]pyrimidin-7(4H)-one]
47.1 | CC(C)c1c(-c2cccnc2)[nH]c2ncnn2c1=O [Example 11-25, 6-(1-methylethyl)-5-pyridin-3-yl[1,2,4]triazolo[1,5-a]pyrimidin-7(4H)-one]
103 | CC(C)c1c(-c2cncnc2)[nH]c2ncnn2c1=O [Example 11-26, 6-(1-methylethyl)-5-pyrimidin-5-yl[1,2,4]triazolo[1,5-a]pyrimidin-7(4H)-one]
17.9 | CC(C)c1c(-c2ccn(C)c2)[nH]c2ncnn2c1=O [Example 11-27, 6-(1-methylethyl)-5-(1-methyl-1H-pyrrol-3-yl)[1,2,4]triazolo[1,5-a]pyrimidin-7(4H)-one]
